# From the supplement of paper PMC9334596
# Structures can show the parent of a compound that is named as a salt.
# System: mPer2Luc MEF
# Experiment: PER2::LUC luminescence relative to vehicle control (fold of vehicle); higher = higher PER2::LUC reporter signal
# Protocol: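 Secondary dose-response validation of 72 circadian-modulating compounds in mPer2Luc MEFs, threefold dilution series of six doses from 10 uM down to 0.04 uM. PER2::LUC luminescence read at 24 h and 30 h after treatment, normalised to vehicle (DMSO) control.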
# [1] = time after treatment: 24-hour, concentration: 0.04μM
# [2] = time after treatment: 24-hour, concentration: 0.37μM
# [3] = time after treatment: 24-hour, concentration: 3.33μM
# [4] = time after treatment: 24-hour, concentration: 10μM
# [5] = time after treatment: 30-hour, concentration: 0.04μM
# [6] = time after treatment: 30-hour, concentration: 0.37μM
# [7] = time after treatment: 30-hour, concentration: 3.33μM
# [8] = time after treatment: 30-hour, concentration: 10μM
SMILES,PER2::LUC luminescence [1],PER2::LUC luminescence [2],PER2::LUC luminescence [3],PER2::LUC luminescence [4],PER2::LUC luminescence [5],PER2::LUC luminescence [6],PER2::LUC luminescence [7],PER2::LUC luminescence [8]
O=c1sn(-c2cccc3ccccc23)c(=O)n1Cc1ccccc1 [Tideglusib],0.908,0.902,0.864,0.879,0.9,0.856,0.886,0.891
NS(=O)(=O)c1ccc(NC(=O)Nc2ccc(F)cc2)cc1 [U-104],1.04,1.05,1.01,0.876,1.05,1.06,1.06,0.947
O=C(O)c1ccc2c(c1)nc(Nc1cccc(Cl)c1)c1ccncc12 [CX-4945],1.13,1.06,1.05,0.842,1.11,1.05,1.08,1.06
O=C(Nc1ccc(OC(F)(F)F)cc1)c1sccc1NCc1ccnc2ccccc12 [OSI-930],1.11,1.04,1.37,1.43,1.14,1.11,1.57,1.91
C/C(=C\C(=O)Nc1ccccc1C(=O)O)c1ccc2ccccc2c1 [BIBR 1532],0.94,0.97,0.991,1.16,0.94,0.891,0.98,1.26
CNC(=O)c1cc(Oc2ccc(NC(=O)Nc3cc(C(C)(C)C)nn3-c3ccc4ncccc4c3)c(F)c2)ccn1 [DCC-2036],1.27,1.3,1.28,1.1,1.72,1.81,1.74,1.27
COc1cc2c(Oc3ccc4[nH]c(C)cc4c3F)ncnc2cc1OCCCN1CCCC1 [Cediranib],0.767,0.585,0.35,0.033,0.662,0.496,0.306,0.019
O=C(Cc1ccc(-c2ccc(OCCN3CCOCC3)cc2)cn1)NCc1ccccc1 [KX2-391],0.85,0.597,0.429,0.365,0.786,0.627,0.497,0.478
Cc1ccc([C@@H]2O[C@H](CO)[C@@H](O)[C@H](O)[C@H]2O)cc1Cc1ccc(-c2ccc(F)cc2)s1 [Canagliflozin],1.01,0.998,0.985,1.09,0.996,0.996,0.964,0.974
COc1cc(C(=O)N2CCC(N3CCN(C)CC3)CC2)ccc1Nc1ncc2c(n1)N(C)c1ccccc1C(=O)N2C [LRRK2-IN-1],0.815,0.751,0.337,0.1,0.817,0.716,0.351,0.098
CN1CCN(S(=O)(=O)c2ccc(-c3cnc(N)c(C(=O)Nc4cccnc4)n3)cc2)CC1 [AZD2858],1.18,1.37,1.01,0.842,0.938,1.16,0.874,0.676
"O=C(NC1CC1)c1cc(-c2cccs2)on1 [N-cyclopropyl-5-(thiophen-2-yl)-1,2-oxazole-3-carboxamide]",1.3,1.33,1.66,1.76,1.37,1.44,1.79,1.99
COc1cc(-c2nc3ccccc3s2)ccc1O [YL-109],1.05,1.08,1.31,1.39,1.13,1.16,1.42,1.53
CCc1cncnc1N1CCN(Cc2nc3ccc(C(F)(F)F)cc3[nH]2)CC1,1.03,1,1.01,1.06,1,1.03,1.01,1.03
NCC(=O)N1C[C@H](NC(=O)c2ccccc2)C[C@H]1C(=O)O [GAP-134 (Hydrochloride)],0.994,0.988,1.05,1.04,1.04,1.04,1.06,1.02
O=C(c1ccc(OCCN2CCCCC2)cc1)c1c(-c2ccc(O)cc2)sc2cc(O)ccc12 [Raloxifene HCl],0.941,0.955,0.814,0.287,1,0.996,0.896,0.512
O=C(c1ccc(F)c(F)c1Nc1ccc(I)cc1F)N1CC(O)([C@@H]2CCCCN2)C1 [Cobimetinib],0.419,0.495,0.11,0.015,0.459,0.437,0.168,0.007
Cc1ccc(NC(=O)Nc2cc(C(F)(F)F)ccc2F)cc1Nc1ccc2c(c1)NC(=O)/C2=C\c1ccc[nH]1 [GNF-5837],1.07,1.06,1.15,0.539,1.05,1.05,1.2,0.751
Cc1ccc2nc(NCCN)c3ncc(C)n3c2c1,0.893,0.859,0.768,0.028,0.841,0.784,0.594,0.03
COc1ccc(-c2nc3cc(F)ccc3s2)cc1OC,1.36,1.39,1.36,1.36,1.66,1.69,1.67,1.58
CCCCN(CCCC)C(=O)CN1C[C@H](c2ccc3c(c2)OCO3)[C@@H](C(=O)O)[C@@H]1c1ccc(OC)cc1 [ATRASENTAN],1.16,1.17,1.5,2.41,1.19,1.16,1.47,2.31
OCc1ccc(-c2ccc(-c3ccc(CO)s3)o2)s1,1.37,1.41,1.49,1.24,1.62,1.63,1.68,1.41
CCOC(=O)N1c2ccc(C(F)(F)F)cc2[C@@H](N(Cc2cc(C(F)(F)F)cc(C(F)(F)F)c2)C(=O)OC)C[C@H]1CC,0.989,0.984,0.939,0.99,0.935,0.917,0.959,0.943
C=CC(=O)Nc1cccc(Nc2nc(Nc3ccc(Oc4ccnc(C(=O)NC)c4)cc3)ncc2F)c1 [CNX-774],0.953,0.958,0.839,0.44,1.01,0.966,0.857,0.586
CN1CCN(c2ccc3nc(-c4c(N)c5c(F)cccc5[nH]c4=O)[nH]c3c2)CC1 [Dovitinib (TKI-258)],0.917,0.895,0.651,0.477,0.945,0.895,0.609,0.29
COc1ccc(CCN2CCC(Nc3nc4ccccc4n3Cc3ccc(F)cc3)CC2)cc1 [Astemizole],0.895,0.815,0.543,0.026,0.783,0.79,0.67,0.009
Cc1cccc(C#Cc2ccccc2)n1 [MPEP Hydrochloride],1.11,1.19,1.33,1.39,1.22,1.41,1.57,1.73
